We go through 48 compounds from US20060166989A1, “2-naphthamide derivatives” (Bayer Healthcare AG, priority 2002, published 2006).

Structures are written as SMILES.

In one data set the target is T1, IP receptor (Homo sapiens, UniProt P43119).
T1 construct: HEL cells were collected with centrifugation and washed with cAMP assay buffer; host or cells: HEL 92.1.7 human erythroleukemia cells
Put plainly: Iloprost-induced cAMP production assay in HEL cells (Assay 2). Conditions: read-out: Activity grade assay 2. In kind it is cell-based. On the procedure: [Iloprost-Induced cAMP Production Assay in HEL Cells] (Assay 2)
HEL cells were collected with centrifugation and washed with cAMP assay buffer (CAB: Hank's balanced salt solution, 17 mM Hepes, 0.1% bovine serum albumin, 1 mM IBMX, 0.4% DMSO, and 1 mM L-ascorbic acid sodium salt (pH 7.4)). Cells were suspended at the density of 2.5×10^5 cells/ml in CAB, and twenty thousand cells in 80 μl aliquot of cell suspension were put in a well of 96 well plate (Falcon). Then, 10 μl of compound solution diluted with 1% DMSO in CAB or buffer alone was added. The plate was incubated at 37° C. for 30 min. Then, another 10 μl containing 100 nM iloprost in CAB or buffer alone was added and further incubated at 37° C. for 30 min. cAMP content in the well was measured by a cAMP ELISA kit (Applied Biosystems, USA).
Results of Iloprost-induced cAMP production assay (Assay2) are shown in Examples and tables of the Examples below. For practical reasons, the compounds are grouped in three classes of activity as follows: A(=or<)0.1μM<B(=or<)1μM<C
(Cyclic AMP is a second messenger, typically raised through Gs and lowered through Gi signalling.)

T1 sequence (P43119 whole entry): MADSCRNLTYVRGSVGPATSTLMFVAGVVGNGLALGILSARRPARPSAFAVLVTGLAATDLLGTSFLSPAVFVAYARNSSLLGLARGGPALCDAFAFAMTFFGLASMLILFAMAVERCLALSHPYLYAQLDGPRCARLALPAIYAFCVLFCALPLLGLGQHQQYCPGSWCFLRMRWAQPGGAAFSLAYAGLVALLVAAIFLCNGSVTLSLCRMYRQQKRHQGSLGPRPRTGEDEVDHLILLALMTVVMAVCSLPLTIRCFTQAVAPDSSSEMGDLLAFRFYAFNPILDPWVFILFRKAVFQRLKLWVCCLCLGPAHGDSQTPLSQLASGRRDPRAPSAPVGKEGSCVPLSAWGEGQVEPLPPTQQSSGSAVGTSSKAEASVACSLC

As usually defined, the melting point is the temperature, or range, at which the solid turns liquid. `O=C(NC(Cc1c[nH]c2ccc(O)cc12)C(=O)O)c1ccc2cc(OCc3ccccc3)ccc2c1` (stereo not drawn) [Example 1-49]: the melting point was 261 to 262 °C (dec.). Further, the IC50 at IP receptor is less than 100 nM.
The like results for `O=C(NC(Cc1ccccc1F)C(=O)O)c1ccc2cc(OCc3ccccc3)ccc2c1` (stereo not drawn) [Example 1-50] were, in that order, 211 to 213 °C and less than 100 nM.
The like results for `O=C(NC(Cc1ccccc1)C(=O)O)c1ccc2cc(OCc3ccccc3Br)ccc2c1` (stereo not drawn) [Example 1-51] were, in that order, 206 to 207 °C and less than 100 nM.
The matching figures for `O=C(NC(Cc1ccccc1)C(=O)O)c1ccc2cc(OCc3cccc(Br)c3)ccc2c1` (stereo not drawn) [Example 1-52]: 194 °C and less than 100 nM.
`O=C(NC(Cc1ccccc1)C(=O)O)c1ccc2cc(OCc3ccc(Br)cc3)ccc2c1` (stereo not drawn) [Example 1-53]: the melting point was determined as 232 °C. In addition, the IC50 on IP receptor was greater than 1000 nM.
The like results for `Cc1ccccc1COc1ccc2cc(C(=O)NC(Cc3ccccc3)C(=O)O)ccc2c1` (stereo not drawn) [Example 1-54] were, in that order, 204 °C and less than 100 nM.
For the compound `Cc1cccc(COc2ccc3cc(C(=O)NC(Cc4ccccc4)C(=O)O)ccc3c2)c1` (stereo not drawn) [Example 1-55], the melting point lay in the range of 184 to 185 °C. Moreover, the IC50 at IP receptor is less than 100 nM.
In the case of `Cc1ccc(COc2ccc3cc(C(=O)NC(Cc4ccccc4)C(=O)O)ccc3c2)cc1` (stereo not drawn) [Example 1-56], the melting point was 212 °C. For the same compound, the IC50 on IP receptor lay within 100 to 1000 nM.
The like results for `Cc1cc(C)cc(COc2ccc3cc(C(=O)NC(Cc4ccccc4)C(=O)O)ccc3c2)c1` (stereo not drawn) [Example 1-57] were, in that order, 167 to 168 °C and 100 to 1000 nM.
The matching figures for `Cc1ccc(COc2ccc3cc(C(=O)NC(Cc4ccccc4)C(=O)O)ccc3c2)cc1C` (stereo not drawn) [Example 1-58]: 189 °C and 100 to 1000 nM.
With `O=C(NC(Cc1ccccc1)C(=O)O)c1ccc2cc(OCc3ccc(F)cc3F)ccc2c1` (stereo not drawn) [Example 1-59], the melting point was 199 °C. For the same compound, on IP receptor, the IC50 lay in the range of 100 to 1000 nM.
The like results for `CC(Oc1ccc2cc(C(=O)NC(Cc3ccccc3)C(=O)O)ccc2c1)c1ccccc1` (stereo not drawn) [Example 1-60] were, in that order, 170 to 172 °C and 100 to 1000 nM.
The matching figures for `O=C(NC(Cc1ccccc1)C(=O)O)c1ccc2cc(OCc3cccc([N+](=O)[O-])c3)ccc2c1` (stereo not drawn) [Example 1-61]: 193 to 194 °C and less than 100 nM.
The like results for `Cc1nc(COc2ccc3cc(C(=O)NC(Cc4ccccc4)C(=O)O)ccc3c2)cs1` (stereo not drawn) [Example 1-62] were, in that order, 208 °C and 100 to 1000 nM.
`O=C(NC(Cc1ccccc1)C(=O)O)c1ccc2cc(OCCCn3cccc3)ccc2c1` (stereo not drawn) [Example 1-63] gave a melting point of 195 °C. The IC50 on IP receptor is 100 to 1000 nM.
The matching figures for `O=C(NC(Cc1ccccc1)C(=O)O)c1ccc2cc(OCCCc3ccccc3)ccc2c1` (stereo not drawn) [Example 1-64]: 182 °C and 100 to 1000 nM.
The matching figures for `CCCCOc1ccc2cc(C(=O)NC(Cc3ccccc3)C(=O)O)ccc2c1` (stereo not drawn) [Example 1-65]: 209 °C and 100 to 1000 nM.
The matching figures for `Nc1ccc(CC(NC(=O)c2ccc3cc(OCc4ccccc4)ccc3c2)C(=O)O)cc1` (stereo not drawn) [Example 1-66]: 238 to 240 °C and greater than 1000 nM.
Regarding `O=C(NC(Cc1ccc2ccccc2c1)C(=O)O)c1ccc2cc(OCc3ccccc3)ccc2c1` (stereo not drawn) [Example 1-67], the melting point is 226 to 227 °C. Moreover, on IP receptor, the IC50 was less than 100 nM.
The matching figures for `CS(=O)(=O)Nc1ccc(CC(NC(=O)c2ccc3cc(OCc4ccccc4)ccc3c2)C(=O)O)cc1` (stereo not drawn) [Example 1-68]: 236 to 237 °C and greater than 1000 nM.
The matching figures for `O=C(NC(Cc1ccncc1)C(=O)O)c1ccc2cc(OCc3ccccc3)ccc2c1` (stereo not drawn) [Example 1-69]: 260 to 262 °C (dec.) and 100 to 1000 nM.
The matching figures for `O=C(NC(Cc1ccccc1)C(=O)O)c1ccc2cc(OCc3cccc4ccccc34)ccc2c1` (stereo not drawn) [Example 1-70]: 220 °C and 100 to 1000 nM.
The compound `O=C(NC(Cc1ccc(I)cc1)C(=O)O)c1ccc2cc(OCc3ccccc3)ccc2c1` (stereo not drawn) [Example 1-71] showed a melting point of 219 to 221 °C. On IP receptor, the IC50 was less than 100 nM.
The like results for `O=C(NC(CCc1ccccc1)C(=O)O)c1ccc2cc(OCc3ccccc3)ccc2c1` (stereo not drawn) [Example 1-72] were, in that order, 223 to 225 °C and greater than 1000 nM.
With `O=C(NC(Cc1ccc(-c2ccccc2)cc1)C(=O)O)c1ccc2cc(OCc3ccccc3)ccc2c1` (stereo not drawn) [Example 1-73], the melting point was in the range of 250 to 252 °C. Moreover, at IP receptor, the IC50 is 100 to 1000 nM.
Turning to `O=C(NC(Cc1ccccc1)C(=O)O)c1ccc2cc(OCC3CCCCC3)ccc2c1` (stereo not drawn) [Example 1-74], the melting point turned out to be 220 °C. In addition, the IC50 on IP receptor is 100 to 1000 nM.
The matching figures for `O=C(NC(Cc1ccc(-c2ccncc2)cc1)C(=O)O)c1ccc2cc(OCc3ccccc3)ccc2c1` (stereo not drawn) [Example 1-75]: 247 to 249 °C (dec.) and 100 to 1000 nM.
Consider `O=C(NC(Cc1ccc(N2CCOCC2)cc1)C(=O)O)c1ccc2cc(OCc3ccccc3)ccc2c1` (stereo not drawn) [Example 1-76], for which the melting point is 216 to 218 °C (dec.). Further, at IP receptor, the IC50 was greater than 1000 nM.
The like results for `O=C(NC(Cc1ccccc1)C(=O)O)c1ccc2cc(OCCc3cccnc3)ccc2c1` (stereo not drawn) [Example 1-77] were, in that order, 113 °C and 100 to 1000 nM.
Take `O=C(NC(Cc1ccccc1)C(=O)O)c1ccc2cc(OCCc3ccccn3)ccc2c1` (stereo not drawn) [Example 1-78]: the melting point was 143 °C. For the same compound, the IC50 at IP receptor was 100 to 1000 nM.
The like results for `O=C(NC(Cc1c[nH]c2ccc(F)cc12)C(=O)O)c1ccc2cc(OCc3ccccc3)ccc2c1` (stereo not drawn) [Example 1-79] were, in that order, 236 to 238 °C (dec.) and less than 100 nM.
The like results for `O=C(NC(Cc1c[nH]c2ncccc12)C(=O)O)c1ccc2cc(OCc3ccccc3)ccc2c1` (stereo not drawn) [Example 1-80] were, in that order, 275 to 277 °C (dec.) and less than 100 nM.
The matching figures for `O=C(NC(Cc1ccccc1)C(=O)O)c1ccc2cc(OCCN3CCCC3)ccc2c1` (stereo not drawn) [Example 1-81]: 234 °C and greater than 1000 nM.
`O=C(NC(Cc1ccccc1)C(=O)O)c1ccc2cc(OCCN3CCCCC3)ccc2c1` (stereo not drawn) [Example 1-82] gave a melting point of 215 °C. Further, the IC50 at IP receptor was greater than 1000 nM.
The like results for `O=C(NC(Cc1ccccc1)C(=O)O)c1ccc2cc(OCCc3ccncc3)ccc2c1` (stereo not drawn) [Example 1-83] were, in that order, 190 °C and less than 100 nM.
The like results for `CC(Cc1ccccc1)(NC(=O)c1ccc2cc(OCc3ccccc3)ccc2c1)C(=O)O` (stereo not drawn) [Example 1-84] were, in that order, 184 °C and 100 to 1000 nM.
The matching figures for `O=C(NC(Cc1ccccc1)C(=O)O)c1ccc2cc(OCc3cccc(O)c3)ccc2c1` (stereo not drawn) [Example 1-85]: 157 °C and less than 100 nM.
Regarding `O=C(NC(Cc1ccccc1)C(=O)O)c1ccc2cc(OCCn3ccnc3)ccc2c1` (stereo not drawn) [Example 1-86], the melting point is 172 °C (dec.). Also, the IC50 on IP receptor fell in the range of 100 to 1000 nM.
The like results for `O=C(NC(Cc1ccccc1)C(=O)O)c1ccc2cc(OCc3ccc[n+]([O-])c3)ccc2c1` (stereo not drawn) [Example 1-87] were, in that order, 252 °C (dec.) and greater than 1000 nM.
The matching figures for `O=C(NC(Cc1ccccc1)C(=O)O)c1ccc2cc(OCc3cccc(OCC4CCCCC4)c3)ccc2c1` (stereo not drawn) [Example 1-88]: 180 °C and greater than 1000 nM.
The like results for `O=C(NC(Cc1ccccc1)C(=O)O)c1ccc2cc(OCc3cccc(OCC4CC4)c3)ccc2c1` (stereo not drawn) [Example 1-89] were, in that order, 179 °C and 100 to 1000 nM.
`CCCCOc1cccc(COc2ccc3cc(C(=O)NC(Cc4ccccc4)C(=O)O)ccc3c2)c1` (stereo not drawn) [Example 1-90] yielded a melting point of 172 °C. In addition, the IC50 on IP receptor was in the range of 100 to 1000 nM.
Turning to `CCOc1cccc(COc2ccc3cc(C(=O)NC(Cc4ccccc4)C(=O)O)ccc3c2)c1` (stereo not drawn) [Example 1-91], the melting point was 145 °C. On IP receptor, the IC50 is less than 100 nM.
`CCCOc1cccc(COc2ccc3cc(C(=O)NC(Cc4ccccc4)C(=O)O)ccc3c2)c1` (stereo not drawn) [Example 1-92] registered a melting point of 173 °C. For the same compound, the IC50 on IP receptor fell in the range of 100 to 1000 nM.
The matching figures for `CC(C)COc1cccc(COc2ccc3cc(C(=O)NC(Cc4ccccc4)C(=O)O)ccc3c2)c1` (stereo not drawn) [Example 1-93]: 140 °C and 100 to 1000 nM.
The like results for `CC(COc1ccc2cc(C(=O)NC(Cc3ccccc3)C(=O)O)ccc2c1)c1ccccc1` (stereo not drawn) [Example 1-94] were, in that order, 160 °C and less than 100 nM.
The matching figures for `O=C(N[C@H](Cc1ccccc1)C(=O)O)c1ccc2cc(OCc3ccccc3)ccc2c1` [Example 2-1, N-[6-(benzyloxy)-2-naphthoyl]-D-phenylalanine]: 179 °C and less than 100 nM.
Regarding `O=C(N[C@@H](Cc1ccccc1)C(=O)O)c1ccc2cc(Oc3ccccc3)ccc2c1` [Example 3-1, N-(6-phenoxy-2-naphthoyl)phenylalanine], the melting point is 179 to 180 °C. In addition, the IC50 at IP receptor was greater than 1000 nM.
